According to patent US11141406B2, “Pharmaceutical compounds” (REVIRAL LIMITED, priority 2017, dated 2021):

Legend:
Format in all cases: cell-based
[1] = tested on: RSV A2 VR-1540; experiment: RSV plaque reduction assay, typical conditions (HEp-2 cells); conditions: human respiratory syncytial virus
Description: The plaque reduction assay was typically performed as follows. HEp-2 cells (ATCC, CCL23) were passaged in flasks and seeded in 96-well plates in DMEM containing antibiotics and supplemented with 10% FBS. During inoculation and subsequent incubation, cells were cultured in DMEM containing 3% FBS. 100 plaque forming unit (PFU)/well of RSV (RSV A2 VR-1540) was mixed with ten serial dilutions of compound. Subsequently, 100 μL of the virus/compound mixtures was added to confluent HEp-2 cell monolayers. The cells and virus/compound mixtures were incubated at 35° C. in a humidified 5% CO2 incubator for 1 day.
Cells were washed twice with PBS before adding 50% v % v EtOH/MeOH, and then stored at −20° C. On the day of the staining, fixative was first removed from the plates. Plates were washed 3× with PBS. A pre-titrated amount of the primary antibody was added in 60 μL PBS/2% milk powder, and plates incubated for 1 h at rt. The plates were washed 3× with PBS/0.05% Tween20 before addition of goat anti-mouse horse radish peroxidase in 60 μL PBS/2% milk powder, and incubated for 1 h at rt. Following three wash steps with PBS/0.05% Tween20, 60 μL ready-to-use TrueBlue was added and plates were incubated at it for 10-15 min before adding MilliQ water. Plates were washed once with water, incubated for 30-60 min and after removal of water, air-dried in the dark.
(§1) Plates were scanned and analyzed using the Immunospot S6 UV analyzer, which is equipped with BioSpot analysis software for counting immunostained plaques (virospots). Plaque counts were used to calculate % infection relative to the mean of the spot count (SC) in the virus control wells for RSV. IC50/IC90 values were calculated as 50% or 90% reduction in signal, respectively, by interpolation of inhibition curves fitted with a 4-parameter nonlinear regression with a variable slope in GraphPad 5.0 (Prism). Alternatively, where noted the plaque reduction assay was performed as follows. Hep G2 cells (ECACC, 85011430) were passaged in flasks and seeded in 12-well plates in DMEM containing antibiotics and supplemented with 10% FBS, 24 h prior to inoculation. During inoculation and subsequent incubation, cells were cultured in DMEM containing 2% FBS. 75 plaque forming unit (PFU)/well of RSV (RSV A2, 0709161v) was mixed with 8 serial dilutions of compound. Subsequently, 200 μL of the virus/compound mixtures was added to confluent Hep G2 cell monolayers, for a 2 h infection, with manual shaking every 15 min. Infectious supernatant was then removed and replaced with 2 mL of overlay, comprising 4 parts of DMEM+2% FBS and 1 part 4% CMC, with 0.25% DMSO. The cells were incubated at 37° C. in a humidified 5% CO2 incubator for 5 days.

[2] = tested on: RSV fusion (HEK293T cells transfected with pCDNA3.1_A2_F); experiment: RSV fusion assay; conditions: human respiratory syncytial virus, HEK-293T, read-out: RSV Fusion Assay (n ≥ 2) IC50
Description: HEK293T ((ECACC 12022001) cells were cultured in T75 culture flasks in Dulbecco's medium (DMEM) containing 10% Foetal Bovine serum (FBS), 50 units per mL Penicillin and 50 μg/mL Streptomycin and warmed to 37° C. prior to use. The cells were passaged by first washing briefly with 5 mL Phosphate buffered saline (PBS), followed by addition of 2 mL of Trypsin Ethylenediaminetetraacetic acid (EDTA) to detach the cells. Once cells had detached from the flask, 8 mL media was then added to and the cells dispersed via pipetting against the bottom of the flask.
The cells were counted and diluted to 3×10^5 cells/mL in fresh media. Two T75 flasks were each seeded with 15.6 mL diluted cells, cells were also subcultured at a ratio of between 1:2 and 1:10, to continue the stock. The flasks were then incubated for 24 h at 37° C. and 5% CO2.
The plasmid DNA (for pFR-Luc and pcDNA3.1_Gal4/NFKB) to be transfected into the HEK 293T cells was first prepared in serum free media (Opti-MEM, Invitrogen), containing the transfection reagent FuGENE® 6 (Promega). Serum free media was placed in a 1.5 mL eppendorf tube then the FuGENE 6 was added into the media. The tube was vortexed for 1 s before being incubated at RT for 5 min. 7.79 ng of both pFR_luc and pCDNA3.1_A2_F plasmid DNA were added to tube 1 and 7.79 ng of pCDNA3.1_GAL4-NF-κB plasmid to tube 2. The tubes were vortexed for 1 second and then incubated at room temperature for 15 min. Each transfection mixture was then added into the media of one of the T75 flasks of 293T cells. Cells were cultured for 24 h at 37° C., 5% CO2 in a humidified incubator.
Compounds were diluted (in a polypropylene round-bottomed 96 well plate) 1:3 in a twelve point dilution curve to give top [final] of either 25 μM, 3 μM, 1 μM or 500 nM. A control compound was included in every assay at a top concentration of 3 μM. Transfected cells were counted and diluted to 4×10^5 cells/mL in fresh media. 50 μL of transfection population 1 were added to all wells of the 96 well flat bottom white opaque assay plates. 100 μL diluted compound (2 rows per compound), control compound (one row) and controls (DMSO (0% inhibition, four wells), 3 μM positive control (100% inhibition, four wells) and media (transfection population 1 only, four wells) were added to the appropriate wells. 50 μL of the diluted (4×10^5 cells/mL) population 2 cells when then added to all wells, except the four wells of transfection population 1 only where an extra 50 μL of this cells population was added.
The plates were then incubated for 24 h at 37° C. and 5% CO2. After this time, 100 μL was removed from all wells and 60 μL of ONE-Glo™ (Promega) reagent, pre-equilibrated to room temperature, was added. Plates were then incubated for 3 min at room temperature before luminescence was read, using the ONE-Glo protocol, on the GloMax Explorer System (Promega) multimode reader. Analysis was carried out in Dotmatics software. All raw data were background subtracted (subtraction of mean 3 μM positive control value), before IC50 calculation.

[3] = tested on: RSV A2, 0709161v; experiment: RSV plaque reduction assay, alternative conditions (Hep G2 cells); conditions: human respiratory syncytial virus, HepG2, mean of at least 2 independent experiments, read-out: RSV Plaque Reduction Assay Strain A2 IC50
Description: as §1
Overlay was removed, and cells were washed with PBS before fixing with a mixture of 75% acetone 25% methanol for 3 minutes and replacing with fresh PBS. […] Staining was carried out whilst shaking at 37° C. First the plates were blocked with 500 uL PBS-T/2% milk powder per well, for 1 hr. This was then replaced with 250 uL PBS-T/2% milk powder containing a pre-titrated amount of the primary antibody (ab1128), for 90 min. The plates were washed 3×5 min with PBS-T, before addition of rabbit anti-goat horse radish peroxidase (AP106P) in 250 μL PBS-T/2% milk powder, and incubated for 1 hr. […]
Plates were scanned and analysed using the Immunospot S6 Macro analyzer, which is equipped with BioSpot analysis software for counting immunostained plaques. […]

## CS(=O)(=O)N1CCN(CCCn2c(CN3C(=O)C(F)(F)c4ccccc43)nc3cc(Cl)ccc32)CC1 [Compound 2, 1-({5-Chloro-1-[3-(4-methanesulfonylpiperazin-1-yl)propyl]-1H-1,3-benzodiazol-2-yl}methyl)-3,3-difluoro-2,3-dihydro-1H-indol-2-one]
[1]; typical protocol, read-out: RSV Plaque Reduction Assay Strain A2 IC90
  IC90: 35 nM
[1]; †: typical protocol, n = 1, read-out: RSV Plaque Reduction Assay Strain A2 IC50
  IC50: 5 nM
[2]
  IC50: 16 nM

## CS(=O)(=O)N1CCC(n2c(CN3C(=O)C(F)(F)c4ccccc43)nc3cc(Cl)ccc32)CC1 [Compound 8, 1-{[5-Chloro-1-(1-methanesulfonylpiperidin-4-yl)-1H-1,3-benzodiazol-2-yl]methyl}-3,3-difluoro-2,3-dihydro-1H-indol-2-one]
[3]
  IC50: 3.5 nM
[2]
  IC50: 1.7 nM
